We go through 16 molecules from US8318769B2, “Substituted sulfonamide compounds” (Gruenethal GmbH, priority 2008, dated 2012).

Read-outs that look alike come from different tables or passages of the source.

The target of experiment [1] is T1, human bradykinin 1 receptor (B1R) (Homo sapiens, UniProt P46663).
T1 construct: expressed in transfected cells
T1 sequence (P46663 1-353): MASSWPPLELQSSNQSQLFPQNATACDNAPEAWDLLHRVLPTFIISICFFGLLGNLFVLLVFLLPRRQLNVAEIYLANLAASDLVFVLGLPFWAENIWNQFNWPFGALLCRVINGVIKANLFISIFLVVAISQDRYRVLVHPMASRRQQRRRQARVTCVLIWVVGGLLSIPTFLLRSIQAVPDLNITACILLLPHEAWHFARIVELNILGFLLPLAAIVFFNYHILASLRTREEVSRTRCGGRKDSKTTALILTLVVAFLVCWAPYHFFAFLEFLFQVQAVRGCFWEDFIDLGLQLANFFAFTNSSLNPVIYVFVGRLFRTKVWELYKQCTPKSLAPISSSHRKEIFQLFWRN
Nature of the experiment: FLIPR Ca2+ assay, B1R antagonism, human. It counts as cell-based. An outline of the steps: (§1)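 CHO K1 cells stably expressing human or rat B1R, loaded with Fluo-4 and read in FLIPR (ex 488, em 540 nm, peak fluorescence). Test compound 10 μM preincubated 10-20 min, then EC80 agonist added (Lys-Des-Arg9-bradykinin for human, Des-Arg9-bradykinin for rat); % inhibition relative to maximum achievable inhibition.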

Experiment [2] has as its target T2, bradykinin 1 receptor (B1R) of the rat (Rattus norvegicus, UniProt P97583).
T2 construct: expressed in transfected cells
T2 sequence (P97583 1-337): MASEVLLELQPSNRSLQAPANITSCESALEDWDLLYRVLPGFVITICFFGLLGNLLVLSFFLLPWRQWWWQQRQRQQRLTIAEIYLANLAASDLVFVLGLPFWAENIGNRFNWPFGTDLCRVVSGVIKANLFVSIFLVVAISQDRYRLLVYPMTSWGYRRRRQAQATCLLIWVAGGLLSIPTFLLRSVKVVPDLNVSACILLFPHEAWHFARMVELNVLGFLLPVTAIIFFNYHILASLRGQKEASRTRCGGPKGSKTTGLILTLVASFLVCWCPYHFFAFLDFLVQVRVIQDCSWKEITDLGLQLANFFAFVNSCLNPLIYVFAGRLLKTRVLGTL
Nature of the experiment: FLIPR Ca2+ assay, B1R antagonism, rat. It counts as cell-based. An outline of the steps: as §1

Where [3] appears, read: 10 μM test substance, CHO K1 cells with human B1R gene (hB1R cells), Lys-Des-Arg9-bradykinin at EC80, % inhibition compared with the maximum achievable inhibition, read-out: B1R antagonism, human [10 μM] % inhibition.
[4] abbreviates: CHO-K1, 10 μM test substance, CHO K1 cells with rat B1R gene (rB1R cells), Des-Arg9-bradykinin at EC80, % inhibition compared with the maximum achievable inhibition, read-out: B1R antagonism, rat [10 μM] % inhibition.

For `COc1cc(C)c(S(=O)(=O)N2CCCCC2COCCC(=O)N2CCC(OCCN3CCCC3)(c3cccc(F)c3)CC2)c(C)c1` (centres unmarked) [Example 122, 1-[4-(3-fluorophenyl)-4-(2-pyrrolidin-1-yl-ethoxy)-piperidin-1-yl]-3-[[1-[(4-methoxy-2,6-dimethyl-phenyl)sulfonyl]-piperidin-2-yl]-methoxy]-propan-1-one], the “B1R antagonism, human [10 μM] % inhibition” value in experiment [1] (10 μM test substance, CHO K1 cells with human B1R gene (hB1R cells), Lys-Des-Arg9-bradykinin at EC80, % inhibition compared with the maximum achievable inhibition) was determined as 100%. Besides, the “B1R antagonism, rat [10 μM] % inhibition” value in experiment [2] (10 μM test substance, CHO K1 cells with rat B1R gene (rB1R cells), Des-Arg9-bradykinin at EC80, % inhibition compared with the maximum achievable inhibition, 10 µM) amounted to 100%.
For `Cc1cccc(Cl)c1S(=O)(=O)N1CCCCC1CCCC(=O)N1CCC(OCCN2CCCC2)(c2cccc(F)c2)CC1` (centres unmarked) [Example 85, 4-[1-[(2-chloro-6-methyl-phenyl)sulfonyl]-piperidin-2-yl]-1-[4-(3-fluorophenyl)-4-(2-pyrrolidin-1-yl-ethoxy)-piperidin-1-yl]-butan-1-one], the inhibition – broadly, the relative decrease from the control value, in per cent – at 10 µM in experiment [1] (setting [3]) worked out at 100%; in experiment [2] (setting [4]) it was 98%.
For `COc1cc(C)c(S(=O)(=O)N2c3ccccc3OCC2COCC(=O)N2CCC(OCCN3CCCC3)(c3ccncc3)CC2)c(C)c1` (centres unmarked) [Example 108, 2-[[4-[(4-methoxy-2,6-dimethyl-phenyl)sulfonyl]-3,4-dihydro-2H-[1,4]benzoxazin-3-yl]-methoxy]-1-[4-pyridin-4-yl-4-(2-pyrrolidin-1-yl-ethoxy)-piperidin-1-yl]-ethanone] the same measures were 100% and 103%.
For `CN1CCN(CCOC2(c3cccnc3)CCN(C(=O)COCC3CCc4ccccc4N3S(=O)(=O)c3ccc(Cl)c(Cl)c3)CC2)CC1` (centres unmarked) [Example 38, 2-((1-(3,4-dichlorophenylsulfonyl)-1,2,3,4-tetrahydroquinolin-2-yl)methoxy)-1-(4-(2-(4-methylpiperazin-1-yl)ethoxy)-4-(pyridin-3-yl)piperidin-1-yl)ethanone] the same measures were 74% and 98%.
For `O=C(CC(NS(=O)(=O)c1ccc2ccccc2c1)c1ccccc1)N1CCC(OCCN2CCCC2)(c2cccnc2)CC1` (centres unmarked) [Example 26, N-(3-oxo-1-phenyl-3-(4-(pyridin-3-yl)-4-(2-(pyrrolidin-1-yl)ethoxy)piperidin-1-yl)propyl)naphthalene-2-sulfonamide] the same measures were 87% and 91%.
For `COc1cc(C)c(S(=O)(=O)N2CCCC[C@H]2COCC(=O)N2CCCC(OCCN3CCCC3)(c3cccnc3)CC2)c(C)c1` (stereo partly drawn) [Example 55, 2-[[(2S)-1-[(4-methoxy-2,6-dimethyl-phenyl)sulfonyl]-piperidin-2-yl]-methoxy]-1-[4-pyridin-3-yl-4-(2-pyrrolidin-1-yl-ethoxy)-azepan-1-yl]-ethanone], the inhibition at 10 µM in experiment [1] (setting [3]) came out at 100%; in experiment [2] (setting [4]) it was 103%.
In the case of `COc1cc(C)c(S(=O)(=O)N2c3ccccc3CCC2COCC(=O)N2CCC(OCCN3CCCC3)(c3cccc(F)c3)CC2)c(C)c1` (centres unmarked) [Example 102, 1-[4-(3-fluorophenyl)-4-(2-pyrrolidin-1-yl-ethoxy)-piperidin-1-yl]-2-[[1-[(4-methoxy-2,6-dimethyl-phenyl)sulfonyl]-1,2,3,4-tetrahydro-quinolin-2-yl]-methoxy]-ethanone], the inhibition at 10 µM was determined as 99% in experiment [1] (setting [3]) and 98% in experiment [2] (setting [4]).
Consider `COc1cc(C)c(S(=O)(=O)N2CCCCC2COCC(=O)N2CCC(OCCN3CCCC3)(c3ccncc3)CC2)c(C)c1` (centres unmarked) [Example 84, 2-[[1-[(4-methoxy-2,6-dimethyl-phenyl)sulfonyl]-piperidin-2-yl]-methoxy]-1-[4-pyridin-4-yl-4-(2-pyrrolidin-1-yl-ethoxy)-piperidin-1-yl]-ethanone], for which the inhibition at 10 µM in experiment [1] (setting [3]) was 100%; in experiment [2] (setting [4]), 103%.
For `COc1cc(C)c(S(=O)(=O)N(CCOCC(=O)N2CCC(OCCN3CCCC3)(c3cccnc3)CC2)C(c2ccccc2)c2ccccc2)c(C)c1` [Example 6, N-benzhydryl-4-methoxy-2,6-dimethyl-N-(2-(2-oxo-2-(4-(pyridin-3-yl)-4-(2-(pyrrolidin-1-yl)ethoxy)piperidin-1-yl)ethoxy)ethyl)benzenesulfonamide] the same measures were 98% and 100%.
Taken in the same sequence, the figures for `Cc1cccc(Cl)c1S(=O)(=O)N(CCOCC(=O)N1CCC(OCCN2CCCC2)(c2cccc(F)c2)CC1)C1CC1` [Example 62, 2-chloro-N-cyclopropyl-N-[2-[2-[4-(3-fluorophenyl)-4-(2-pyrrolidin-1-yl-ethoxy)-piperidin-1-yl]-2-oxo-ethoxy]-ethyl]-6-methyl-benzenesulfonic acid amide] were 100% and 102%.
Taken in the same sequence, the figures for `O=C(COCC1CCc2ccccc2N1S(=O)(=O)c1ccc(Cl)c(Cl)c1)N1CCC(OCCN2CCCCC2)(c2cccnc2)CC1` (centres unmarked) [Example 16, 2-((1-(3,4-dichlorophenylsulfonyl)-1,2,3,4-tetrahydroquinolin-2-yl)methoxy)-1-(4-(2-(piperidin-1-yl)ethoxy)-4-(pyridin-3-yl)piperidin-1-yl)ethanone] were 103% and 87%.
Regarding `CN1CCN(CCOC2(c3cccnc3)CCN(C(=O)CC(NS(=O)(=O)c3ccc4ccccc4c3)c3ccccc3)CC2)CC1` (centres unmarked) [Example 32, N-(3-(4-(2-(4-methylpiperazin-1-yl)ethoxy)-4-(pyridin-3-yl)piperidin-1-yl)-3-oxo-1-phenylpropyl)naphthalene-2-sulfonamide], the values for the inhibition at 10 µM in experiment [1] (setting [3]) and in experiment [2] (setting [4]) were 63% and 98%, respectively.
Regarding `O=C(COCCN(C(c1ccccc1)c1ccccc1)S(=O)(=O)c1ccc(Cl)cc1Cl)N1CCC(OCCN2CCCC2)(c2cccnc2)CC1` [Example 4, N-benzhydryl-2,4-dichloro-N-(2-(2-oxo-2-(4-(pyridin-3-yl)-4-(2-(pyrrolidin-1-yl)ethoxy)piperidin-1-yl)ethoxy)ethyl)benzenesulfonamide], the inhibition at 10 µM in experiment [1] (CHO-K1, read-out: B1R antagonism, human [10 μM] % inhibition) was found to be 99%; in experiment [2] (CHO-K1, read-out: B1R antagonism, rat [10 μM] % inhibition), 98%.
As for `COc1cc(C)c(S(=O)(=O)N(C)CCOCC(=O)N2CCC(OCCCN3CCCC3)(c3cccnc3)CC2)c(C)c1` [Example 41, 4-methoxy-N,2,6-trimethyl-N-(2-(2-oxo-2-(4-(pyridin-3-yl)-4-(3-(pyrrolidin-1-yl)propoxy)piperidin-1-yl)ethoxy)ethyl)benzenesulfonamide], the inhibition at 10 µM was 100% in experiment [1] (setting [3]) and 101% in experiment [2] (setting [4]).
Taken in the same sequence, the figures for `COc1cc(C)c(S(=O)(=O)N2CCCC[C@H]2COCC(=O)N2CCC(OCCN3CCCC3)(c3ccncc3)CC2)c(C)c1` [Example 57, 2-[[(2S)-1-[(4-methoxy-2,6-dimethyl-phenyl)sulfonyl]-piperidin-2-yl]-methoxy]-1-[4-pyridin-4-yl-4-(2-pyrrolidin-1-yl-ethoxy)-piperidin-1-yl]-ethanone] were 100% and 103%.
Taken in the same sequence, the figures for `COc1cc(C)c(S(=O)(=O)N(CCOCC(=O)N2CCC(OCCN3CCCC3)(c3cccc(F)c3)CC2)c2ccccc2)c(C)c1` [Example 99, N-[2-[2-[4-(3-fluorophenyl)-4-(2-pyrrolidin-1-yl-ethoxy)-piperidin-1-yl]-2-oxo-ethoxy]-ethyl]-4-methoxy-2,6-dimethyl-N-phenyl-benzenesulfonic acid amide] were 99% and 97%.
